# Tested on: yeast genes (expressed mRNA)
# Experiment: DNA chip measurement of expressed mRNA of yeast genes after culture with a toxic chemical substance
# Type: cell-based, Saccharomyces cerevisiae S288C
# Method: Yeast (Saccharomyces cerevisiae S288C (a SUC2mal mel gap2 CUP1)) were cultured at 25° C. on YPD medium (yeast extract 1%, polypeptone 2%, glucose 2%). One of toxic chemical substances was added to the cell at logarithmic growth phase, and the cell was further cultured for two hours. Cell was cultured without any chemical substance in the same condition, and was used as a control. Concentrations of the chemical substances were defined to inhibit the growth of the yeast but not lead to death.
# After the completion of cultivation, the culture was centrifuged to collect the cells. To the cells, sodium acetate buffer (50 mM sodium acetate, 10 mM EDTA, 1% SDS) was added, and the mixture was shaken at 65° C. for five minutes, followed by returning to room temperature, and obtaining the supernatant, which procedure was repeated two times. To the supernatant, ½ amount of a solution of phenol/chloroform (1:1) was added, and the mixture was centrifuged to give a supernatant, an equal amount of chloroform was added, and the mixture was centrifuged to give a supernatant. To the supernatant, an equal amount of isopropanol containing 0.3 M sodium acetate was added, and the mixture was allowed to stand at room temperature for 30 minutes, after which the mixture was centrifuged to give sediment of the whole RNAs. Seventy % ethanol was added to the sediment, and the mixture was again centrifuged to give sediment, which was then dried and dissolved in water. mRNA was isolated from the whole RNAs as followings. In view of the fact that a poly A chain is attached to the 3′ terminus of mRNA, a polynucleotide having a poly T structure which was immobilized on the surface of latex beads was used to trap the mRNA, and then the mRNA was washed and eluted with spine column (Oligotex-dT30<Super>mRNA Purification Kit, Takara). Reverse transcription of the mRNA was conducted with a reverse transcriptase (Super Script II Reverse Transcriptase; catalogue No. 18064-014, GibcoBRL) using fluorescence-labeled nucleotides to give cDNAs that were introduced with Cy3-dUTP or Cy5-dUTP during the reverse transcription.
# The labeled cDNAs were dissolved in TE buffer (10 mM Tris-HCl/1 mM EDTA, pH 8.0), and the solution was dropped on the DNA chip containing the whole genes of yeast (DNA Chip Research Inc. Japan) so that the cDNAs were hybridized on the DNA chip at 65° C. for over 12 hours. The fluoresces intensity of the DNA chip was read with a scanner, and the ratio relative to the fluorescence intensity resulting from the absence of chemical substance was estimated as the following, which is shown in Tables 1 to 9.
# In the Tables, “Intensity” indicated in the rightmost column is a value of the level of expressed mRNA of each gene in control cells as divided by the average level of the expressions of the whole genes. A gene of which mRNA level is lower in control, and is higher in cases of addition of chemical substance, is especially useful in the detection of toxic substances.
# Here, when a ratio of an amount of mRNA expressed in the presence of the chemical substance to an amount of mRNA expressed in the absence of the chemical substance is two or more, then it is considered significant.
compound,measurement,setting,value
"CCCCCCCCCCCCOS(=O)(=O)[O-].[Na+] [(18), Sodium lauryl sulfate]",The level of expressed mRNA in the presence of chemical substance/The level of expressed mRNA in the absence of chemical substance,"yeast gene YAL053W, cultured two hours with substance",1.6
same,The level of expressed mRNA in the presence of chemical substance/The level of expressed mRNA in the absence of chemical substance,"yeast gene YAR028W, cultured two hours with substance",2.1
same,The level of expressed mRNA in the presence of chemical substance/The level of expressed mRNA in the absence of chemical substance,"yeast gene YAR031W, cultured two hours with substance",2.5
same,The level of expressed mRNA in the presence of chemical substance/The level of expressed mRNA in the absence of chemical substance,"yeast gene YBL048W, cultured two hours with substance",1.0
same,The level of expressed mRNA in the presence of chemical substance/The level of expressed mRNA in the absence of chemical substance,"yeast gene YBL057C, cultured two hours with substance",1.2
same,The level of expressed mRNA in the presence of chemical substance/The level of expressed mRNA in the absence of chemical substance,"yeast gene YBL107C, cultured two hours with substance",1.4
same,The level of expressed mRNA in the presence of chemical substance/The level of expressed mRNA in the absence of chemical substance,"yeast gene YBR005W, cultured two hours with the substance",4.6
same,The level of expressed mRNA in the presence of chemical substance/The level of expressed mRNA in the absence of chemical substance,yeast gene YCL035C (detoxification protein gene),4.2
same,The level of expressed mRNA in the presence of chemical substance/The level of expressed mRNA in the absence of chemical substance,yeast gene YCL035C (stress protein genes),4.2
same,The level of expressed mRNA in the presence of chemical substance/The level of expressed mRNA in the absence of chemical substance,"yeast gene YCR015C, cultured two hours with the chemical substance",1.2
same,The level of expressed mRNA in the presence of chemical substance/The level of expressed mRNA in the absence of chemical substance,"yeast gene YDL072C, cultured two hours with substance",2.8
same,The level of expressed mRNA in the presence of chemical substance/The level of expressed mRNA in the absence of chemical substance,"yeast gene YDL110C, cultured two hours with substance",4.4
same,The level of expressed mRNA in the presence of chemical substance/The level of expressed mRNA in the absence of chemical substance,"yeast gene YDL204W, cultured two hours with substance",2.7
same,The level of expressed mRNA in the presence of chemical substance/The level of expressed mRNA in the absence of chemical substance,"yeast gene YDL222C, cultured two hours with substance",1.3
same,The level of expressed mRNA in the presence of chemical substance/The level of expressed mRNA in the absence of chemical substance,"yeast gene YDR018C, cultured two hours with substance",1.2
same,The level of expressed mRNA in the presence of chemical substance/The level of expressed mRNA in the absence of chemical substance,"yeast gene YDR031W, cultured two hours with substance",2.5
same,The level of expressed mRNA in the presence of chemical substance/The level of expressed mRNA in the absence of chemical substance,"yeast gene YDR070C, cultured two hours with substance",3.1
same,The level of expressed mRNA in the presence of chemical substance/The level of expressed mRNA in the absence of chemical substance,"yeast gene YDR330W, cultured two hours with substance",1.3
same,The level of expressed mRNA in the presence of chemical substance/The level of expressed mRNA in the absence of chemical substance,"yeast gene YDR350C, cultured two hours with substance",1.2
same,The level of expressed mRNA in the presence of chemical substance/The level of expressed mRNA in the absence of chemical substance,"yeast gene YDR391C, cultured two hours with substance",2.4
same,The level of expressed mRNA in the presence of chemical substance/The level of expressed mRNA in the absence of chemical substance,"yeast gene YDR411C, cultured two hours with substance",1.3
same,The level of expressed mRNA in the presence of chemical substance/The level of expressed mRNA in the absence of chemical substance,"yeast gene YDR482C, cultured two hours with substance",1.2
same,The level of expressed mRNA in the presence of chemical substance/The level of expressed mRNA in the absence of chemical substance,"yeast gene YDR486C, cultured two hours with substance",1.7
same,The level of expressed mRNA in the presence of chemical substance/The level of expressed mRNA in the absence of chemical substance,"yeast gene YDR511W, cultured two hours with substance",1.5
same,The level of expressed mRNA in the presence of chemical substance/The level of expressed mRNA in the absence of chemical substance,"yeast gene YDR531W, cultured two hours with substance",1.2
same,The level of expressed mRNA in the presence of chemical substance/The level of expressed mRNA in the absence of chemical substance,"yeast gene YDR545W, cultured two hours with substance",0.9
same,The level of expressed mRNA in the presence of chemical substance/The level of expressed mRNA in the absence of chemical substance,"yeast gene YEL001C, cultured two hours with substance",1.3
same,The level of expressed mRNA in the presence of chemical substance/The level of expressed mRNA in the absence of chemical substance,"yeast gene YER004W, cultured two hours with substance",1.2
same,The level of expressed mRNA in the presence of chemical substance/The level of expressed mRNA in the absence of chemical substance,"yeast gene YER035W, cultured two hours with substance",2.1
same,The level of expressed mRNA in the presence of chemical substance/The level of expressed mRNA in the absence of chemical substance,"yeast gene YER038C, cultured two hours with substance",1.4
same,The level of expressed mRNA in the presence of chemical substance/The level of expressed mRNA in the absence of chemical substance,"yeast gene YER079W, cultured two hours with substance",1.6
same,The level of expressed mRNA in the presence of chemical substance/The level of expressed mRNA in the absence of chemical substance,"yeast gene YER106W, cultured two hours with substance",0.8
same,The level of expressed mRNA in the presence of chemical substance/The level of expressed mRNA in the absence of chemical substance,"yeast gene YER158C, cultured two hours with substance",1.2
same,The level of expressed mRNA in the presence of chemical substance/The level of expressed mRNA in the absence of chemical substance,"yeast gene YER163C, cultured two hours with substance",1.2
same,The level of expressed mRNA in the presence of chemical substance/The level of expressed mRNA in the absence of chemical substance,"yeast gene YER175C, cultured two hours with substance",1.2
same,The level of expressed mRNA in the presence of chemical substance/The level of expressed mRNA in the absence of chemical substance,"yeast gene YFL006W, cultured two hours with substance",0.8
same,The level of expressed mRNA in the presence of chemical substance/The level of expressed mRNA in the absence of chemical substance,"yeast gene YFL010C, cultured two hours with substance",1.6
same,The level of expressed mRNA in the presence of chemical substance/The level of expressed mRNA in the absence of chemical substance,"yeast gene YFL014W, DNA repair protein genes, cultured two hours with substance",8.8
same,The level of expressed mRNA in the presence of chemical substance/The level of expressed mRNA in the absence of chemical substance,"yeast gene YFL024C, cultured two hours with substance",0.8

# Reference: patent US20100041089A1, “IMPROVED METHOD FOR DETECTING CHEMICAL […]” (priority 2006, published 2010)
